Read-outs that look alike come from different tables or passages of the source.
Tests used:
Debaryomyces hansenii = test: Wood preservative efficacy against bacteria and yeasts, tryptose agar plates; type: cell-based; set-up: key: 0 = growth equal to control, 1 = inhibition, 2 = no growth
Protocol: (§1) Compositions were prepared by dissolving the compounds shown in Table 1 in 50% ethanol and further diluting with sterile distilled water. […] After cooling, the medium was inoculated with the bacteria listed below. After sufficient growth of the untreated cultures, the compounds were evaluated using the following rating system: 0=growth equal to control 1=inhibition of growth by the compound 2=no growth under the influence of the compound. In this Table, the higher numbers are the most preferred species. Debaryomyces hansenii (yeast)

Pseudomonas alcaligenes = test: as above; type: cell-based; set-up: key: 0 = growth equal to control, 1 = inhibition, 2 = no growth; conditions: 100 ppm in tryptose agar
Protocol: as §1, with “Pseudomonas alcaligenes (gram neg)” for “Debaryomyces hansenii (yeast)”

Bacillus cereus mycoides = type: cell-based; set-up: scale not given here
Escherichia coli = test: Wood preservative efficacy against bacteria and yeasts, tryptose agar plates; type: cell-based; set-up: key: 0 = growth equal to control, 1 = growth inhibited, 2 = no growth
Protocol: as §1, with “Escherichia coli ([…])” for “Debaryomyces hansenii (yeast)”

Streptomyces albus = test: as above; type: cell-based; set-up: key: 0 = growth equal to control, 1 = inhibition, 2 = no growth
Protocol: as §1, with “Streptomyces albus (gram pos)” for “Debaryomyces hansenii (yeast)”

Flavobacterium sp. = test: as above; type: cell-based; set-up: key: 0 = growth equal to control, 1 = growth inhibited, 2 = no growth
Protocol: as §1, with “Flavobacterium sp. (gram neg)” for “Debaryomyces hansenii (yeast)”

Enterobacter aerogenes = test: as above; type: cell-based; set-up: key: 0 = growth equal to control, 1 = inhibition, 2 = no growth
Protocol: as §1, with “Enterobacter aerogenes (gram neg)” for “Debaryomyces hansenii (yeast)”

Pseudomonas aeruginosa = test: as above; type: cell-based; set-up: key: 0 = growth equal to control, 1 = growth inhibited, 2 = no growth; conditions: 100 ppm in tryptose agar
Protocol: as §1, with “Pseudomonas aeruginosa (gram neg)” for “Debaryomyces hansenii (yeast)”

Mucor sp. = test: Wood preservative efficacy against fungi, agar plate colony diameter; type: cell-based; conditions: 100 ppm, Table 6B
Protocol: (§2) Each plate was inoculated with a spore suspension or with a small piece of agar (1 mm) from the margin of an actively growing colony of the test fungus. The fungi employed are listed below. After incubation at 22° C. and 70% relative humidity during a period long enough to allow significant growth of untreated controls, the diameters of the fungus colonies were measured and scored using the following rating system: 0=free of fungal growth 1=25% of fungal growth compared to untreated 2=50% of fungal growth compared to untreated 3=75% of fungal growth compared to untreated 4=Growth equal to that of untreated The scores measured for wood preservation efficacy of the compounds of this invention are listed in Tables 6a and 6b. In these Tables, the lower numbers are the most preferred species. Mucor sp.

Coriolus versicolor = test: as above; type: cell-based; conditions: 10 ppm, Table 6B
Protocol: as §2, with “Coriolus versicolor” for “Mucor sp.”

Chaetomium globosum = test: as above; type: cell-based; conditions: 10 ppm, Table 6B
Protocol: as §2, with “Chaetomium globosum” for “Mucor sp.”

Coniophora puteana = test: as above; type: cell-based; set-up: key: 0 = no fungal growth, 1-3 = 25/50/75% of untreated, 4 = equal; conditions: 10 ppm, Table 6B
Protocol: as §2, with “Coniophora puteana (syn. C. cerebella)” for “Mucor sp.”

Aspergillus flavus = test: as above; type: cell-based; conditions: 10 ppm, Table 6B
Protocol: as §2, with “Aspergillus flavus” for “Mucor sp.”

[1] = test system: blue-stain fungi and molds; test: Activity against blue-stain fungi and molds in a stick test (threshold concentrations); conditions: beech sticks, 22° C., 90% relative humidity
Protocol: Representative compounds of this invention were dissolved in 50% ethanol. Each compound was then diluted serially using 50% ethanol. […] After three (3) hours, the solutions containing the test compounds were poured off and the treated sticks were allowed to dry in a sterile laminar air flow. Each treated stick was then placed in a Petri dish which had been previously seeded with inoculum. Two drops of a test fungal or spore suspension were pipetted onto the upper surface of each treated stick. The Petri dishes containing the treated sticks were incubated at 22° C. and 90% relative humidity. The treated sticks were evaluated after there was sufficient growth of fungus on control sticks (i.e., untreated sticks) incubated in the same manner. The following score system was used: 0: Stick free of fungal/mold growth 1: Traces of fungal growth on the stick 2: Slight growth (5 to 25% of the surface covered with fungal growth) 3: Moderate growth (25 to 50% covered with fungal growth) 4. Vigorous to maximum fungal growth (more than 50% growth) […]

| Compound | Score of bactericidal activity, D. hansenii (Debaryomyces hansenii; 10 ppm in tryptose agar) | Score of bactericidal activity, D. hansenii (Debaryomyces hansenii; 100 ppm in tryptose agar) | Score of bactericidal activity, P. alcalgenes (Pseudomonas alcaligenes) | Score of bactericidal activity, B. cereus mycoides (Bacillus cereus mycoides; 10 ppm in tryptose agar) | Score of bactericidal activity, B. cereus mycoides (Bacillus cereus mycoides; 100 ppm in tryptose agar) | Score of bactericidal activity, E. Coli (Escherichia coli; 100 ppm in tryptose agar) | Score of bactericidal activity, S. albus (Streptomyces albus; 100 ppm in tryptose agar) | Score of bactericidal activity, Flavobacter (Flavobacterium sp.; 100 ppm in tryptose agar) | Score of bactericidal activity, E. aerogenes (Enterobacter aerogenes; 100 ppm in tryptose agar) | Score of bactericidal activity, P. aeruginosa (Pseudomonas aeruginosa) | melting point [°C] | further results |
| --- | --- | --- | --- | --- | --- | --- | --- | --- | --- | --- | --- | --- |
| C[S+]1CCON=C1c1c(Cl)cccc1Cl (stereo not shown) [Compound 15] | 0 | 1 | 0 | 0 | 1 | 0 | 0 | 0 | 0 | 0 |  |  |
| C[S+]1CCON=C1c1ccccc1 (stereo not shown) [Compound 17] |  |  | 0 | 0 | 0 | 0 | 0 | 0 | 0 | 0 |  | Score of fungicidal activity, MUCOR SP (Mucor sp.): 4; Score of bactericidal activity, E. Coli (Escherichia coli; 10 ppm in tryptose agar): 0; Score of bactericidal activity, S. albus (Streptomyces albus; 10 ppm in tryptose agar): 0; Score of fungicidal activity, G. VERSICLOR (Coriolus versicolor): 4; Score of fungicidal activity, C. GLOBOSUM (Chaetomium globosum): 4; Score of fungicidal activity, C. PUTEANA (Coniophora puteana): 4; Score of bactericidal activity, Flavobacter (Flavobacterium sp.; 10 ppm in tryptose agar): 0; Score of bactericidal activity, E. aerogenes (Enterobacter aerogenes; 10 ppm in tryptose agar): 0; Score of fungicidal activity, A. FLAVUS (Aspergillus flavus): 4 |
| CC1C[S+]([O-])C(c2cccs2)=NO1 (stereo not shown) [Compound 50, 5,6-dihydro-6-methyl-3-(2-thienyl)-1,4,2-oxathiazine-4-oxide] |  |  |  |  |  |  |  |  |  |  | 114 to 115 | Threshold concentration (ppm), A. niger, score 0 ([1]; A. niger, minimum concentration to obtain score 0): 1000 ppm; Threshold concentration (ppm), A. niger, score 1-2 ([1]; A. niger, minimum concentration to obtain score 1-2): 250-500 ppm; Threshold concentration (ppm), Aureobasidium, score 0 ([1]; Aureobasidium, minimum concentration to obtain score 0): >1000 ppm; Threshold concentration (ppm), Aureobasidium, score 1-2 ([1]; Aureobasidium, minimum concentration to obtain score 1-2): 100-500 ppm; Threshold concentration (ppm), Sclerophoma, score 0 ([1]; Sclerophoma, minimum concentration to obtain score 0): 100 ppm; Threshold concentration (ppm), Sclerophoma, score 1-2 ([1]; Sclerophoma, minimum concentration to obtain score 1-2): 50-100 ppm; Threshold concentration (ppm), Trichoderma, score 0 ([1]; Trichoderma, minimum concentration to obtain score 0): 5000 ppm; Threshold concentration (ppm), Trichoderma, score 1-2 ([1]; Trichoderma, minimum concentration to obtain score 1-2): 1000-2500 ppm |
| CC1CSC(c2cccs2)=NO1 (stereo not shown) [Compound 52, 5,6-dihydro-6-methyl-3-(2-thienyl)-1,4,2-oxathiazine] |  |  |  |  |  |  |  |  |  |  | 70 to 72 |  |
| C[S+]1CCON=C1c1cccc(C(F)(F)F)c1 (stereo not shown) [Compound 13] | 2 | 2 | 0 | 2 | 2 | 2 | 2 | 2 | 0 | 0 |  |  |
| C[S+]1CCON=C1c1ccc(Cl)cc1Cl (stereo not shown) [Compound 2] | 2 | 2 | 0 | 0 | 2 | 0 | 0 | 2 | 0 | 0 |  |  |
| Clc1ccc(C2=NOCCS2)s1 [Compound 59, 3-(5-chloro-2-thienyl)-5,6-dihydro-1,4,2-oxathiazine] |  |  |  |  |  |  |  |  |  |  | 74 to 77 |  |
